Test results taken from PMC12361874, “Common Food Additives Inhibit Carbonic Anhydrase Activity” (Journal of Biochemical and Molecular Toxicology, 2025).
“And” between values parts separate entries of the source, which are not always exact repeats. Identical values can stand only once. Like-named read-outs stand apart in the source and are kept apart here. Where a SMILES comes first, the peptide text is derived from it.

Experiments:
[1] = biological target: T1, bovine carbonic anhydrase (bCA) (Bos taurus, UniProt P00921); assay: Inhibition of esterase activity (p-nitrophenyl acetate) of purified bCA; assay type: biochemical; conditions: for IC50 / IC50 bCA: esterase activity method, saturated substrate concentration
T1 construct: from tissue; host or cells: bovine blood hemolysate (erythrocytes are inferred)
T1 sequence (P00921 whole entry): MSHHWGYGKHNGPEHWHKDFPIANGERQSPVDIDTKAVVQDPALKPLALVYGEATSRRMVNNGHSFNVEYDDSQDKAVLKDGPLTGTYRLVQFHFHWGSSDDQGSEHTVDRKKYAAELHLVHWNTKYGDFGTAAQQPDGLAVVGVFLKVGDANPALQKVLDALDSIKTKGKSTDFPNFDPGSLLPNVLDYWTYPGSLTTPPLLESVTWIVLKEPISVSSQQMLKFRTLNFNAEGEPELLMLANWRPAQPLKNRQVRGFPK
Protocol: (§1) The human erythrocyte carbonic anhydrase isozymes hCAI and hCAII were eluted with 50 mM Na2HPO4 ‐ 1 M NaCl, pH: 6.3, and 0.1 M CH3COONa ‐ 0.5 M NaClO4, pH: 5.6, respectively (flow rate: 20 mL/h, fraction volume: 5 mL). The bovine enzyme was eluted with 0.1 M CH3COONa ‐ 0.5 M NaClO4 (pH: 5.6) buffer system. The protein elution by affinity column chromatography was monitored by absorbance measurement at 280 nm.
(§2) Carbonic anhydrase activity was also assayed by following esterase activity according to the method defined by Verpoorte et al. with slight modification. The enzyme hydrolyzes the substrate, p‐nitrophenyl acetate, to p‐nitrophenol or p‐nitrophenolate. The change in absorbance was measured spectrophotometrically at room temperature for a period of 3 min. The reaction mixture contained 0.5 mL of 0.05 M Tris–SO4 buffer (pH: 7.4), 0.75 mL of p‐NPA (3 mM), 0.1 mL of distilled water, and 0.15 mL of the enzyme solution (final volume 1.5 mL). […] All measurements were performed as triplicates. The method was used to determine the inhibitory activities of the food additives studied.
(§3) To determine the effect of all samples on bCA, hCAI, and hCAII isoenzymes esterase activity at saturated substrate concentration, activity (%) ‐ inhibitor concentration [I] graphs were plotted.

[2] = biological target: T2, hCAI isoenzyme purified from human erythrocytes (Homo sapiens, UniProt P00915); assay: Inhibition of esterase activity (p-nitrophenyl acetate) of purified hCAI; IC50, Ki, inhibition type; assay type: biochemical
T2 construct: hCAI isoenzyme purified from human erythrocytes; from tissue; host or cells: human erythrocytes
T2 sequence (P00915 whole entry): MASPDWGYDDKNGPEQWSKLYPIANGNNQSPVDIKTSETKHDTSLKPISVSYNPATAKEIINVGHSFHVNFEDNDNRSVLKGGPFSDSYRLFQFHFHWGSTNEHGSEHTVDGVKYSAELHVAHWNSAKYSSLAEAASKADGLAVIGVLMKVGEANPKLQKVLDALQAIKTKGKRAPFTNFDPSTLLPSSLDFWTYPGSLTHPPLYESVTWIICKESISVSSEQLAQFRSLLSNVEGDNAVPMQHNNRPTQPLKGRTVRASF
Protocol: as §1, §2, §3
Lineweaver–Burk lines were drawn for each inhibitor concentration. In the graph equation, Ki values were calculated by using Vmax=V^I max(1 + [I]/Ki) formula for semi‐competitive and Noncompetitive inhibition.

[3] = biological target: T3, hCAII isoenzyme purified from human erythrocytes (Homo sapiens, UniProt P00918); assay: Inhibition of esterase activity (p-nitrophenyl acetate) of purified hCAII; assay type: biochemical; conditions: esterase activity method, saturated substrate concentration
T3 construct: […]; from tissue; host or cells: human erythrocytes
Protocol: as §1, §2, §3

[4] = set-up: method as in Joint FAO/WHO Expert Committee on Food Additives; conditions: NL: not limited; ref Joint FAO/WHO Expert Committee on Food Additives; cited from earlier work
hCAII [5] = conditions: cited from earlier work
hCAI [6] = system: hCAI; set-up: method as in PMID 27451209; conditions: in vitro; cited from earlier work
[7] = system: glandular stomach, colon and lungs of mice; set-up: method as in PMID 20686341; conditions: cited from earlier work
hCAI [8] = conditions: read-out: IC50(hCAI); cited from earlier work
hCAII [9] = conditions: read-out: IC50(hCAII); cited from earlier work
[10] = esterase activity method, saturated substrate concentration, read-out: IC50 hCAI

| Compound | IC50 [1] | IC50 [2, 10] [µM] | IC50 [3] | ADI (acceptable daily intake) [4] [mg/kg] | also measured |
| --- | --- | --- | --- | --- | --- |
| O=C([O-])c1ccccc1-c1c2cc(I)c(=O)c(I)c-2oc2c(I)c([O-])c(I)cc12.[Na+].[Na+] [Erythrosine B] | 11 µM and 10.8 µM | 19.37 ± 0.04 | 5 µM and 5.22 µM | 0.1 | Type of inhibition ([2]; Lineweaver–Burk): Noncompetitive; IC50 ([2]; Table 3, read-out: IC50 (hCAI esterase activity)): 19 µM; Ki ([2]; [I] 0.015 mM, Lineweaver–Burk, read-out: Ki values): 2.9 µM; Ki ([2]; [I] 0.019 mM, Lineweaver–Burk, read-out: Ki values): 1.7 µM; Ki ([2]; [I] 0.023 mM, Lineweaver–Burk, read-out: Ki values): 3.9 µM; Ki ([2]; three inhibitor concentrations, five substrate concentrations (0.15–0.75 mM), read-out: Average Ki): 2.8 µM |
| O=S(=O)([O-])c1ccc2c(N=Nc3ccc(S(=O)(=O)[O-])c4ccccc34)c(O)c(S(=O)(=O)[O-])cc2c1.[Na+].[Na+].[Na+] [Amaranth] | 296.06 ± 0.06 µM | 496.04 ± 0.04 | 603.11 ± 0.11 µM | 0.5 | – |
| Cc1c(C(=O)O)c(O)cc2c1C(=O)c1c(O)c([C@@H]3O[C@H](CO)[C@@H](O)[C@H](O)[C@H]3O)c(O)c(O)c1C2=O [Carminic Acid, Carminic acid] | 586.92 ± 0.01 µM | 684 | 581.07 ± 0.03 µM | 2.5 | – |
| Cc1cc(C(C)(C)C)c(O)c(C(C)(C)C)c1 [Butylated Hydroxytoluene (BHT), Butylated hydroxytoluene (BHT)] | 512.85 ± 0.05 µM | 462.89 ± 0.1 | 104.29 ± 0.09 µM | 0.3 | – |
| O=C(O)CC(O)(CC(=O)O)C(=O)O [Citric Acid] | 616.9 ± 0.1 µM | 1799.4 ± 0.03 | 1241.9 ± 0.07 µM | – | – |
| O=C1NS(=O)(=O)c2ccccc21 [Saccharin] | – | 2049.1 ± 0.1 | – | 5 | inhibition against hCAII (hCAII [5]): low micromolar inhibition |
| O=C1/C(=C2\Nc3ccc(S(=O)(=O)[O-])cc3C2=O)Nc2ccc(S(=O)(=O)[O-])cc21.[Na+].[Na+] [Indigo Carmine] | 141.59 ± 0.07 µM | 1018.6 ± 0.04 | 242.03 ± 0.03 µM | 5 | – |
| CCN(Cc1cccc(S(=O)(=O)[O-])c1)c1ccc(C(=C2C=CC(=[N+](CC)Cc3cccc(S(=O)(=O)[O-])c3)C=C2)c2ccccc2S(=O)(=O)[O-])cc1.[Na+].[Na+] [Brilliant Blue FCF] | 136.26 ± 0.04 µM | 208.04 ± 0.03 | 364.3 ± 0.09 µM | 6 | – |
| COC(=O)[C@H](Cc1ccccc1)NC(=O)[C@@H](N)CC(=O)O [Aspartame] (HELM PEPTIDE1{D.F.[CO[*:1]]}$$$$V2.0) | – | 2816.9 ± 0.03 | 2935.8 ± 0.02 µM | 40 | IC50 bCA [1]: inactive; IC50 bCA ([1]; listed as aspartame): no effect |
| O=S(=O)([O-])c1ccc(N=Nc2c(O)ccc3cc(S(=O)(=O)[O-])ccc23)cc1.[Na+].[Na+] [Sunset Yellow FCF] | 680.82 ± 0.05 µM | 350.05 ± 0.03 | 488.63 ± 0.07 µM | 4 | – |
| C/C=C/C=C/C(=O)O [Sorbic Acid, Sorbic acid] | 1801.4 ± 0.04 µM | 4566.2 ± 0.06 | 3475.1 ± 0.1 µM | 25 | – |
| COc1cc(S(=O)(=O)[O-])c(C)cc1N=Nc1c(O)ccc2cc(S(=O)(=O)[O-])ccc12.[Na+].[Na+] [Allura Red AC] | 762.12 ± 0.12 µM | 781.65 ± 0.06 | 504.04 ± 0.02 µM | 7 | IC50 (hCAI [6]): 565 µM; DNA damage in in vivo comet assay [7]: DNA damage |
| O=S(=O)([O-])c1cc(S(=O)(=O)[O-])c2c(N=Nc3ccc(S(=O)(=O)[O-])c4ccccc34)c(O)ccc2c1.[Na+].[Na+].[Na+] [Ponceau 4R, Ponceau 4 R] | 239.84 ± 0.04 µM | 678.27 ± 0.03 | 617.09 ± 0.01 µM | 0.7 | – |
| O=C([O-])C1=NN(c2ccc(S(=O)(=O)[O-])cc2)C(=O)C1N=Nc1ccc(S(=O)(=O)[O-])cc1.[Na+].[Na+].[Na+] (centres unmarked) [Tartrazine] | 659.67 ± 0.07 µM | 652.25 ± 0.05 | 621.83 ± 0.05 µM | 7.5 | – |
| O=C(O)c1ccccc1 [Benzoic Acid, Benzoic acid] | 1850.7 ± 0.05 µM | 2784 ± 0.06 | 2988.8 ± 0.06 µM | 5 | – |
| O=C1O[C@H]([C@@H](O)CO)C(O)=C1O [Ascorbic Acid, Ascorbic acid] | 993.67 ± 0.03 µM | 1834.1 ± 0.1 | 2160.1 ± 0.07 µM | – | – |
| CCN(CC)c1ccc(C(=C2C=CC(=[N+](CC)CC)C=C2)c2cc(O)c(S(=O)(=O)[O-])cc2S(=O)(=O)[O-])cc1.CCN(CC)c1ccc(C(=C2C=CC(=[N+](CC)CC)C=C2)c2cc(O)c(S(=O)(=O)[O-])cc2S(=O)(=O)[O-])cc1.[Ca+2] [Patent Blue V] | 267.46 ± 0.09 µM | 316.98 ± 0.02 | 396.74 ± 0.03 µM | 5 | – |
| CC(=O)Nc1ccc(S(=O)(=O)[O-])c2cc(S(=O)(=O)[O-])c(N=Nc3ccc(N=Nc4ccc(S(=O)(=O)[O-])cc4)c4ccc(S(=O)(=O)[O-])cc34)c(O)c12.[Na+].[Na+].[Na+].[Na+] [Brilliant Black BN] | 153.32 ± 0.04 µM | 91.14 ± 0.09 | 502.45 ± 0.03 µM | 1 | – |
| CC1=CC(=O)NS(=O)(=O)O1 [Acesulfame K] | 2350.5 ± 0.1 µM | – | – | 15 | inhibition at 2000 µg/mL ([1]; at 2 mg/mL concentration): 13% |
| COc1cc(/C=C/C(=O)CC(=O)/C=C/c2ccc(O)c(OC)c2)ccc1O [Curcumin] | – | – | – | – | IC50 (hCAI [8]): 5.63 µM; IC50 (hCAII [9]): 4.81 µM |
